From publication PMC11984392, “EphA2-targeted alpha-particle theranostics for enhancing PDAC treatment” (Theranostics, 2025)
Values belong to the compound of their own block, whether it stands above or below them. *1 amine or outer side, *2 acyl side, *3 side chain or, on linkers, in order; H or OH if unused. Where a SMILES comes first, the peptide text is derived from it. Bridges are numbered along the chain shown (N, C = ends). [ ]: non-standard residue; d: D form. The star is where a group is joined. DOTA = O=C(O)CN1CCN(CC(=O)O)CCN(CC(=O)*)CCN(CC(=O)O)CC1; TATA = O=C(CC[*:1])N1CN(C(=O)CC[*:2])CN(C(=O)CC[*:3])C1; NOTA = O=C(O)CN1CCN(CC(=O)O)CCN(CC(=O)*)CC1; Hyp = O=C(O)[C@@H]1C[C@@H](O)CN1; hArg = N=C(N)NCCCC[C@H](N)C(=O)O; PEG2 = NCCOCCOCCC(=O)O; Sar = CNCC(=O)O

Columns and labels:
Ex vivo biodistribution [1] = format: in vivo, mice; details: mouse, in vivo, 50 uCi, total radioactivity
Protocol: (§1) Mice with 100-200 mm^3 tumor volume were used for ex vivo biodistribution studies. For radiotracer pharmacokinetics and dosimetry studies, mice with Panc1 tumor xenograft received ~80 µCi (2.96 MBq) [^68Ga]AJ201 and were sacrificed at pre-determined time points (5, 30, 60, 90 and 120 min). All other mice were injected with ~50 µCi (1.85 MBq; 0.2 to 0.5 nmol) Ga-68 labeled radiotracer and were sacrificed at 60 min. The selected tissues were collected, weighed, counted, and their %ID/g values calculated for biodistribution analysis. For pharmacokinetics and dosimetry studies, selected tissues included blood, muscle, tumor, thymus, heart, lung, liver, pancreas, stomach, small intestine, large intestine, spleen, adrenals, kidney, bladder, femur, brain and tumor xenografts. For other studies, selected tissues were blood, muscle, tumor, heart, lung, liver, pancreas, small intestine, spleen, kidney.

Ex vivo biodistribution [2] = experiment: Ex vivo biodistribution; set-up: species or system NSG mice; details: both sexes, NSG, mouse, in vivo, 50 uCi, total radioactivity
Protocol: Animal studies were performed under Johns Hopkins University Animal Care and Use Committee (ACUC)-approved protocol (Principal investigator: Sridhar Nimmagadda, Ph.D. and Protocol number M021M175). Male and Female NSG mice (5-6 weeks old) were purchased from JHU immunocompromised core and used to establish xenografts by administering cells subcutaneously (top right flank, unless otherwise noted) to form various tumor models within 3-4 weeks. Following cell numbers were used: Panc1, AsPC1, BxPC3 (1 M), Hs766T and SU8686 (2 M), CFPAC and Panc1005 (5 M). Imaging or biodistribution studies (n = 3-5) were conducted on mice with tumor volumes of 100-200 mm^3. The Panc1 orthotopic tumor model was established by surgically implanting a 3-5 mm^3 section of Panc1 tumor xenograft directly onto the pancreas. The implanted tumors were allowed to grow and were ready for imaging after 10 days of implantation.
as §1

human EphA2 = molecular target: T1, human EphA2 (Homo sapiens, UniProt P29317); experiment: SPR binding affinity (Biacore T200, CM5 chip); details: 25 °C, HBS-P + 0.1% DMSO, 1:1 kinetics model
T1 construct: purchased R&D systems 3035-A2
T1 sequence (P29317 25-534 limits assumed): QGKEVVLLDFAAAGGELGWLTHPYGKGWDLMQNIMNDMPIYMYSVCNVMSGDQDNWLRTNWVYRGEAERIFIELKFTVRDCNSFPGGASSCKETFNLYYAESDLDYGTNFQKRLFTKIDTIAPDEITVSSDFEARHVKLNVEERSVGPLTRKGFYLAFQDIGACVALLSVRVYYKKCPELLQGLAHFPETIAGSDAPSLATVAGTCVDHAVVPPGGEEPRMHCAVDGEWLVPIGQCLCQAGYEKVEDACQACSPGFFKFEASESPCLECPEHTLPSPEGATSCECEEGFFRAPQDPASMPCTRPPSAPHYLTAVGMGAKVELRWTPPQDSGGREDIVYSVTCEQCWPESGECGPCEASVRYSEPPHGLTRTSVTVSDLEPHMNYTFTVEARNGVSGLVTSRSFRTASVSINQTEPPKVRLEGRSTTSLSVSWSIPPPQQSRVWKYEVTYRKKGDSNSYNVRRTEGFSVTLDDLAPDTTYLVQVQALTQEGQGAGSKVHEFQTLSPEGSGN
Protocol: (§2) All experiments were conducted using a Biacore T200 instrument (GE Healthcare Life Sciences) with a CM5 chip at 25 °C. His-tagged human EphA2 (R&D systems, catalog # 3035-A2, 56.9 kDa, 4.46 μM stock concentration) and mouse EphA2 (SinoBiological, cat.# 50586-M08H, 58 kDa, 8.6 μM stock concentration) were immobilized onto the CM5 chip. AJ201 (3328.8 Da, 10 mM stock concentration) and AJ210 (3072.5 Da, 10 mM stock concentration) were used as analyte to flow over the ligand immobilized surface. Flow Cell (FC) 1 was used as the reference for FC2, FC3 for FC4. Anti-His antibody (2 mg/ml stock concentration) was diluted (1:100 dilution, 0.02 mg/ml diluted concentration) in 10 mM sodium acetate buffer at pH 4.5 and immobilized on all FCs to a level of ~8000 to 11000 RU using the standard amine coupling chemistry. HBS-P (10 mM HEPES pH 7.4, 150 mM NaCl, 0.05% v/v surfactant P20) was used as the immobilization running buffer. Human EphA2 was diluted (1:5 dilution) in HBS-P captured onto FC2 to a level of ~750 RU. Mouse EphA2 was diluted (1:10 dilution) in HBS-P captured onto FC4 to a level of ~750 RU. HBS-P was used as the capture running buffer. The Rmax values assume 1:1 interaction mechanism. Overnight kinetics were performed for all analytes in the presence of HBS-P+0.1% DMSO. The flow rate of all analyte solutions was maintained at 50 μL/min. The contact and dissociation times used were 120s and 600s, respectively. Glycine solution (pH 1.5) was injected for 15 s for surface regeneration and fresh ligands were captured in the beginning of each injection cycle. Sensorgrams from the overnight kinetics was evaluated by using 1:1 kinetics model fitting.

mouse EphA2 = molecular target: T2, mouse EphA2 (Mus musculus, UniProt Q03145); experiment: SPR binding affinity (Biacore T200, CM5 chip); details: 25 °C, HBS-P + 0.1% DMSO, 1:1 kinetics model
T2 construct: purchased SinoBiological 50586-M08H
T2 sequence (Q03145 26-535 limits assumed): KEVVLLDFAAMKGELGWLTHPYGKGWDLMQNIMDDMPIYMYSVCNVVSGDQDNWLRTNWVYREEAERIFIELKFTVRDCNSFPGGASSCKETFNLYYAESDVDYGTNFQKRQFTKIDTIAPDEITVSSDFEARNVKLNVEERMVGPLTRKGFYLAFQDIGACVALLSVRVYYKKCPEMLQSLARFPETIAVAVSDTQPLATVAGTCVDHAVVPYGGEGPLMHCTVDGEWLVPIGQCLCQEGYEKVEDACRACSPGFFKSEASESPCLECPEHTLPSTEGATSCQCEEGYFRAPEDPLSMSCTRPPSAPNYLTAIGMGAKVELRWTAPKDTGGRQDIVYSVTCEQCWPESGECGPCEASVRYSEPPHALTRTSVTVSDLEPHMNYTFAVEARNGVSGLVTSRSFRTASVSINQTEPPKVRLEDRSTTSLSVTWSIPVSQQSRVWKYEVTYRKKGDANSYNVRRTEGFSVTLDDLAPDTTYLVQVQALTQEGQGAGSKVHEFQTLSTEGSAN
Protocol: as §2

[3] = set-up: species or system C57BL/6 mice; details: mouse, in vivo
Protocol: Male C57BL/6 mice (5-6 weeks old) were used to establish syngeneic tumor by administering KPC cells subcutaneously in top right flank. For this study, 0.5 million cells were inoculated subcutaneously into the upper flank of each animal. Tumor growth was closely monitored, and once tumors became palpable, their volumes were measured using a vernier caliper. Animals were then randomized into groups to ensure balanced baseline tumor sizes, with median volumes of approximately 60 mm^3 (PBS group median: 60 mm^3; radiotherapeutic group median: 57 mm^3). Following randomization, two subsequent doses of 0.5 µCi of [^225Ac]AJ210 were administered intravenously with the interval of 24 h. Similarly, saline was administered in the control group. Measurements of tumor volume and body weight were conducted in alternative days until the end of study. Blood was collected retro-orbitally at 3-, 7- and 28-days post radiotherapy injection and hematological parameter were assessed using SCIL Vet ABC Plus instrument.
Tissue blocks and slides of liver, kidneys and lungs were prepared by JHU histology core and staining was also carried out by the Core. Briefly, tissue samples were fixed in formalin for 24 h and rinsed with PBS and stored in PBS. These tissue samples were dehydrated through graded ethanol series, cleared in xylene, and embedded in paraffin. Sections (4-5 µm thick) were cut using a microtome and mounted on glass slides. The slides were deparaffinized in xylene, rehydrated through graded ethanol to distilled water, and stained with hematoxylin for 5 min. After rinsing in running water, sections were differentiated in 1% acid alcohol, blued in ammonia water, and counterstained with eosin for 1-2 min. Slides were dehydrated, cleared in xylene, and mounted with a coverslip using a permanent mounting medium. Images were captured under a brightfield microscope to evaluate tissue structure and histopathological features.

- tissue uptake at 1 h (Ex vivo biodistribution [1]; Blood uptake): 0.56 ± 0.14 %ID/g
- tissue uptake at 1 h (Ex vivo biodistribution [1]; Femur uptake): 0.29 ± 0.07 %ID/g
- tissue uptake at 1 h (Ex vivo biodistribution [1]; Heart uptake): 0.24 ± 0.05 %ID/g
- tissue uptake at 1 h (Ex vivo biodistribution [1]; Kidney uptake): 59.9 ± 16.4 %ID/g
- tissue uptake at 1 h (Ex vivo biodistribution [1]; Liver uptake): 0.26 ± 0.05 %ID/g
- tissue uptake at 1 h (Ex vivo biodistribution [1]; Lung uptake): 0.57 ± 0.13 %ID/g
- tissue uptake at 1 h (Ex vivo biodistribution [1]; Muscle uptake): 0.19 ± 0.04 %ID/g
- tissue uptake at 1 h (Ex vivo biodistribution [1]; Pancreas uptake): 0.24 ± 0.06 %ID/g
- tissue uptake at 1 h (Ex vivo biodistribution [1]; Small intestine uptake): 0.64 ± 0.47 %ID/g
- tissue uptake at 1 h (Ex vivo biodistribution [1]; Spleen uptake): 0.35 ± 0.07 %ID/g
- tissue uptake at 1 h (Ex vivo biodistribution [1]; Stomach uptake): 0.17 ± 0.07 %ID/g
- tissue uptake at 1 h (Ex vivo biodistribution [1]; Tumor uptake): 1.06 ± 0.25 %ID/g
- tissue to tissue ratio at 1 h (Ex vivo biodistribution [1]; Tumor/Muscle ratio): 5.61 ± 0.69
- tissue to tissue ratio at 1 h (Ex vivo biodistribution [1]; Tumor/Pancreas ratio): 4.65 ± 1.46
- tissue to tissue ratio at 1 h (Ex vivo biodistribution [1]; Tumor/blood ratio): 1.94 ± 0.44
- tissue uptake at 1 h (Ex vivo biodistribution [2]; Blood uptake): 0.96 ± 0.33 %ID/g
- tissue uptake at 1 h (Ex vivo biodistribution [2]; Femur uptake): 0.38 ± 0.08 %ID/g
- tissue uptake at 1 h (Ex vivo biodistribution [2]; Heart uptake): 0.84 ± 0.14 %ID/g
- tissue uptake at 1 h (Ex vivo biodistribution [2]; Kidney uptake): 24.4 ± 9.98 %ID/g
- tissue uptake at 1 h (Ex vivo biodistribution [2]; Liver uptake): 0.34 ± 0.06 %ID/g
- tissue uptake at 1 h (Ex vivo biodistribution [2]; Lung uptake): 0.39 ± 0.08 %ID/g
- tissue uptake at 1 h (Ex vivo biodistribution [2]; Muscle uptake): 0.4 ± 0.16 %ID/g
- tissue uptake at 1 h (Ex vivo biodistribution [2]; Pancreas uptake): 0.3 ± 0.08 %ID/g
- tissue uptake at 1 h (Ex vivo biodistribution [2]; Small intestine uptake): 0.62 ± 0.22 %ID/g
- tissue uptake at 1 h (Ex vivo biodistribution [2]; Spleen uptake): 0.74 ± 0.22 %ID/g
- tissue uptake at 1 h (Ex vivo biodistribution [2]; Stomach uptake): 0.09 ± 0.03 %ID/g
- tissue uptake at 1 h (Ex vivo biodistribution [2]; Tumor uptake): 3.72 ± 0.66 %ID/g
- tissue to tissue ratio at 1 h (Ex vivo biodistribution [2]; Tumor/Muscle ratio): 10.3 ± 4.01
- tissue to tissue ratio at 1 h (Ex vivo biodistribution [2]; Tumor/Pancreas ratio): 13.1 ± 4.11
- tissue to tissue ratio at 1 h (Ex vivo biodistribution [2]; Tumor/blood ratio): 4.09 ± 0.97
Compound: CC(C)C[C@@H]1NC(=O)[C@@H]2CSCCC(=O)N3CN(CN(C3)C(=O)CCSC[C@H](NC(=O)[C@H](CC(=O)O)NC(=O)[C@H](CCCCNC(=N)N)NC(=O)[C@H](C)NC(=O)CNC(=O)CNC(=O)CNC(=O)CNC(=O)CNC(=O)CN3CCN(CC(=O)O)CCN(CC(=O)O)CCN(CC(=O)O)CC3)C(=O)N3C[C@H](O)C[C@H]3C(=O)N[C@@H](CC(C)C)C(=O)N[C@@H](C(C)C)C(=O)N[C@@H](CC(N)=O)C(=O)N3CCC[C@H]3C(=O)N[C@@H](CC(C)C)C(=O)N2)C(=O)CCSC[C@@H](C(N)=O)NC(=O)[C@H](CCCCNC(=N)N)NC(=O)[C@H](Cc2c[nH]c3ccccc23)NC(=O)[C@@H](CC(=O)O)NC(=O)[C@@H]2CCCN2C(=O)[C@H](Cc2c[nH]cn2)NC1=O [[^68Ga]AJ210, metal not drawn] ({DOTA}-GGGGGA[hArg]DC[Hyp]LVNPLCLHP[dD]W[hArg]C-NH2; linker 9-16-23 via TATA)

Compound: CC(C)C[C@@H]1NC(=O)[C@@H]2CSCCC(=O)N3CN(CN(C3)C(=O)CCSC[C@H](NC(=O)[C@H](CC(=O)O)NC(=O)[C@H](CCCCNC(=N)N)NC(=O)[C@H](C)NC(=O)CNC(=O)CN(C)C(=O)CN(C)C(=O)CN(C)C(=O)[C@H](CCCNC(=N)N)NC(=O)CNC(=O)CCOCCOCCNC(=O)CN3CCN(CC(=O)O)CCN(CC(=O)O)CC3)C(=O)N3C[C@H](O)C[C@H]3C(=O)N[C@@H](CC(C)C)C(=O)N[C@@H](C(C)C)C(=O)N[C@@H](CC(N)=O)C(=O)N3CCC[C@H]3C(=O)N[C@@H](CC(C)C)C(=O)N2)C(=O)CCSC[C@@H](C(N)=O)NC(=O)[C@H](CCCCNC(=N)N)NC(=O)[C@H](Cc2c[nH]c3ccccc23)NC(=O)[C@@H](CC(=O)O)NC(=O)[C@@H]2CCCN2C(=O)[C@H](Cc2c[nH]cn2)NC1=O [AJ201] ({NOTA-PEG2}-GR[Sar][Sar][Sar]GA[hArg]DC[Hyp]LVNPLCLHP[dD]W[hArg]C-NH2; linker 10-17-24 via TATA)
- koff (human EphA2): 0.00133 s⁻¹
- kon (human EphA2): 7.6e+06 M⁻¹ s⁻¹
- koff (mouse EphA2): 0.00302 s⁻¹
- kon (mouse EphA2): 5.03e+06 M⁻¹ s⁻¹

- H&E histology of kidney [3]: no significant pathological changes
- H&E histology of liver [3]: no significant pathological changes
- H&E histology of lungs [3]: no significant pathological changes
- H&E staining of lung, liver and kidney sections [3]: no visible histological abnormalities
Compound: CC(C)C[C@@H]1NC(=O)[C@@H]2CSCCC(=O)N3CN(CN(C3)C(=O)CCSC[C@H](NC(=O)[C@H](CC(=O)O)NC(=O)[C@H](CCCCNC(=N)N)NC(=O)[C@H](C)NC(=O)CNC(=O)CNC(=O)CNC(=O)CNC(=O)CNC(=O)CN3CCN(CC(=O)O)CCN(CC(=O)O)CCN(CC(=O)O)CC3)C(=O)N3C[C@H](O)C[C@H]3C(=O)N[C@@H](CC(C)C)C(=O)N[C@@H](C(C)C)C(=O)N[C@@H](CC(N)=O)C(=O)N3CCC[C@H]3C(=O)N[C@@H](CC(C)C)C(=O)N2)C(=O)CCSC[C@@H](C(N)=O)NC(=O)[C@H](CCCCNC(=N)N)NC(=O)[C@H](Cc2c[nH]c3ccccc23)NC(=O)[C@@H](CC(=O)O)NC(=O)[C@@H]2CCCN2C(=O)[C@H](Cc2c[nH]cn2)NC1=O [[^225Ac]AJ210, metal not drawn] ({DOTA}-GGGGGA[hArg]DC[Hyp]LVNPLCLHP[dD]W[hArg]C-NH2; linker 9-16-23 via TATA)
